In patent US6376209B2, “Increasing the FVII sensitivity of a thromboplastin reagent” (Dade Behring Marburg GmbH, priority 1997, dated 2002):
Read-outs that look alike come from different tables or passages of the source. Where a SMILES comes first, the peptide text is derived from it. [ ]: non-standard residue; d: D form. The star is where a group is joined. Sta = CC(C)C[C@H](N)[C@@H](O)CC(=O)O; Isovaleryl = CC(C)CC(=O)*

What was measured:
Assay type in all cases: biochemical
[1] = test system: FVII-deficient plasma; test: Quick's thromboplastin time (PT), Schnitger & Gross; design: Coagulation time, Sample: FVII: unit not given beside the values; conditions: for Coagulation time FVII-MP / FVII sens.: FVII-MP/100%: 0.5 sec; for Coagulation time FVII-MF / FVII-sens. FVII-MP/100%: 0.75 sec, incubated 37° C., 90 min; for Coagulation time, Sample: FVII / FVII sens.: FVII/100%: ascorbic acid 1 mM, Fe(II)SO4 or CuCl 0.01 mM, stabilization after 6 h (iron: after 1 h)
Description: (§1) Quick's thromboplastin time (PT) was then determined using a Schnitger & Gross as follows:
(§2) Heat reagents and tubes to 37° C.;
(§3) Introduce […] of control plasma N or FVII-deficient plasma into the tubes;
(§4) Incubate for 1 min in the thermoblock;
(§5) Add 200 μl of thromboplastin and at the same time start the measuring operation; shake the tube briefly and place it in the measuring position of the Schnitger & Gross, and insert the electrode holder up to the limit stop;
(§6) Read off the coagulation time.
(§7) Quick's thromboplastin time (PT) is then determined using a Schnitger & Gross as follows:
(§8) Introduce 100 μl of plasma into the tubes;
(§9) Add 200 μl of thromboplastin and at the same time start the measuring operation;
(§10) shake the tube briefly, place it in the measuring position of the Schnitger & Gross, and insert the electrode holder up to the limit stop;

[2] = test system: Standard human plasma; test: as above; conditions: for Coagulation time, Sample: 100%: ascorbic acid 1 mM, stabilization after 6 h (iron: after 1 h)
Description: as §1, §2, §3, §4, §5, §6, §7, §8, §9, §10

[3] = test system: control plasma Patho II; test: as above
Description: as §7, §2, §8, §4, §9, §10, §6
The spread was calculated from the ratio of the coagulation times for the dilution of the StHPl and the StHPl, and the FVII sensitivity was calculated from the ratio of the coagulation times for FVII-MP and STHPL.
Standard human plasma, the control plasma Patho II and an FVII-deficient plasma were used as samples. The reagents were stored at 4° C. and 37° C. and the coagulation time was repeated after 7 and 14 days. The spread was calculated from the ratio of the coagulation times of the Patho II and the StHPl, and the FVII sensitivity was calculated from the ratio of the coagulation times for FVII-MP and the STHPL.

[4] = test system: FVII-deficient plasma; test: PT, Behring Coagulation Timer (PT.sec Thromborel S); conditions: 0.75 sec, incubated 37° C., 90 min
Description: (§11) Thromborel S Bulkware according to Example 8a) was short-time heated at a temperature of 120° C. using a dwell time of 0.75 sec and then adjusted to pH 7.5 with 0.16 mM sodium carbonate; different concentrations of chloramine T were subsequently added and the mixtures were incubated at 37° C. for 90 min. Stabilizers and 6 mM acetylcysteine were added to the solution. The pH value was adjusted to 6.5 and the coagulation time was determined using a Behring Coagulation Timer (PT.sec Thromborel S).
(§12) Standard human plasma, the control plasma Patho II and an FVII-deficient plasma were used as samples. The spread was calculated from the ratio of the coagulation times of the Patho II and the StHPl, and the FVII sensitivity was calculated from the ratio of the coagulation times for the FVII-MP and the STHPL.

[5] = test system: Standard human plasma; test: as above; conditions: 0.75 sec, incubated 37° C., 90 min
Description: as §11, §12

[6] = test system: control plasma Patho II; test: as above; conditions: 0.75 sec, incubated 37° C., 90 min
Description: The coagulation time was determined using a Behring Coagulation Timer (PT.sec Thromborel S). Standard human plasma, the. control plasma Patho II (Behringwerke AG) and an FVII-deficient plasma were employed as samples. The spread was calculated from the ratio of the coagulation times of the Patho II and the StHPl, and the FVII sensitivity was calculated from the ratio of the coagulation times for FVII-MP and STHPL.
The coagulation time was determined using a Behring Coagulation Timer (PT.sec Thromborel S). Standard human plasma, the control plasma Patho II and an FVII-deficient plasma were employed as samples. The spread as calculated from the ratio of the coagulation times of the Patho II and the StHPl, and the FVII sensitivity was calculated from the ratio of the coagulation times for FVII-MP and STHPL.
as §11, §12

[7] = 0.01 mM added to Thromborel S heated 95° C.
[8] = 0.025 mM added to Thromborel S heated 95° C.
[9] = 0.05 mM added to Thromborel S heated 95° C.
[10] = 0.1 mM added to Thromborel S heated 95° C.
[11] = 0.5 mM added to Thromborel S heated 95° C.
[12] = 0.01 mM added to Thromborel S heated 95° C., 0.5 sec
[13] = 0.025 mM added to Thromborel S heated 95° C., 0.5 sec
[14] = 0.05 mM added to Thromborel S heated 95° C., 0.5 sec
[15] = 0.1 mM added to Thromborel S heated 95° C., 0.5 sec
[16] = 0.5 mM added to Thromborel S heated 95° C., 0.5 sec
[17] = 1.5 mM added to Thromborel S heated 95° C.
[18] = 1.5 mM added to Thromborel S heated 95° C., 0.5 sec
[19] = 0.001 mM added to Thromborel S heated 120° C.
[20] = 0.01 mM added to Thromborel S heated 120° C.
[21] = 0.1 mM added to Thromborel S heated 120° C.
[22] = 0.00003% added to Thromborel S heated 120° C.
[23] = 0.0003% added to Thromborel S heated 120° C.
[24] = 0.003% added to Thromborel S heated 120° C.
[25] = 0.03% added to Thromborel S heated 120° C.
[26] = 0.3% added to Thromborel S heated 120° C.
[27] = reagent stored 18 h/4° C., ascorbic acid 1 mM, Fe(II)SO4 or CuCl 0.01 mM, stabilization after 6 h (iron: after 1 h)
[28] = reagent stored 7 days 4° C., ascorbic acid 1 mM, Fe(II)SO4 or CuCl 0.01 mM, stabilization after 6 h (iron: after 1 h)
[29] = reagent stored 7 days 37° C., ascorbic acid 1 mM, Fe(II)SO4 or CuCl 0.01 mM, stabilization after 6 h (iron: after 1 h)
[30] = 0.7 mg/l added to Thromborel S heated 95° C.
[31] = 0.7 mg/l added to Thromborel S heated 95° C., 0.5 sec
[32] = 0.5 mg/l added to Thromborel S heated 95° C.

## Nc1ccc(CS(=O)(=O)F)cc1 [pa-PMSF, 4-aminophenylmethanesulfonyl fluoride]
[1]; [7]
  Coagulation time FVII-MP: 144 s
  FVII sens.: FVII-MP/100%: 13.6
[1]; [8]
  Coagulation time FVII-MP: 147 s
  FVII sens.: FVII-MP/100%: 13.8
[1]; [9]
  Coagulation time FVII-MP: 161 s
  FVII sens.: FVII-MP/100%: 15.2
[1]; [10]
  Coagulation time FVII-MP: 172 s
  FVII sens.: FVII-MP/100%: 16.1
[1]; [11]
  Coagulation time FVII-MP: 298 s
  FVII sens.: FVII-MP/100%: 27.6
[2]; [12]
  Coagulation time 100%: 10.6 s
[2]; [13]
  Coagulation time 100%: 10.6 s
[2]; [14]
  Coagulation time 100%: 10.6 s
[2]; [15]
  Coagulation time 100%: 10.7 s
[2]; [16]
  Coagulation time 100%: 10.8 s
[3]; [12]
  Coagulation time Patho II: 22.3 s
  Spread: Patho II/100%: 2.1
[3]; [13]
  Coagulation time Patho II: 21.8 s
  Spread: Patho II/100%: 2.1
[3]; [14]
  Coagulation time Patho II: 22.2 s
  Spread: Patho II/100%: 2.1
[3]; [15]
  Coagulation time Patho II: 21.7 s
  Spread: Patho II/100%: 2.0
[3]; [16]
  Coagulation time Patho II: 23.i
  Spread: Patho II/100%: 2.1

## O=S(=O)(F)Cc1ccccc1 [PMSF, phenylmethylsulfonyl fluoride]
[1]; [17]
  Coagulation time FVII-MP: 259 s
  FVII sens.: FVII-MP/100%: 24.2
[2]; [18]
  Coagulation time 100%: 10.7 s
[3]; [18]
  Coagulation time Patho II: 21.9 s
  Spread: Patho II/100%: 2.0

## Cc1ccc(S(=O)(=O)[N-]Cl)cc1.[Na+] [chloramine T]
[4]; [19]
  Coagulation time FV-MP: 140.1 s
  FVII-sens. FVII-MP/100%: 12.2
[4]; [20]
  Coagulation time FV-MP: 141.6 s
  FVII-sens. FVII-MP/100%: 12.1
[4]; [21]
  Coagulation time FV-MP: 177.4 s
  FVII-sens. FVII-MP/100%: 13.6
[5]; [19]
  Coagulation time 100%: 11.5 s
[5]; [20]
  Coagulation time 100%: 11.7 s
[5]; [21]
  Coagulation time 100%: 13 s
[6]; [19]
  Coagulation time Patho II: 34.2 s
  Spread Patho II/100%: 3.0
[6]; [20]
  Coagulation time Patho II: 34.7 s
  Spread Patho II/100%: 3.0
[6]; [21]
  Coagulation time Patho II: 38.2 s
  Spread Patho II/100%: 2.9

## OO [H2O2]
[1]; [22]
  Coagulation time FVII-MF: 132 s
  FVII-sens. FVII-MP/100%: 11.1
[1]; [23]
  Coagulation time FVII-MF: 133 s
  FVII-sens. FVII-MP/100%: 11.4
[1]; [24]
  Coagulation time FVII-MF: 139 s
  FVII-sens. FVII-MP/100%: 12.2
[1]; [25]
  Coagulation time FVII-MF: 143 s
  FVII-sens. FVII-MP/100%: 12.4
[1]; [26]
  Coagulation time FVII-MF: 156 s
  FVII-sens. FVII-MP/100%: 10.4
[2]; 0.00003% added to Thromborel S heated 120° C., 0.75 sec, incubated 37° C., 90 min
  Coagulation time 100%: 11.9 s
[2]; 0.0003% added to Thromborel S heated 120° C., 0.75 sec, incubated 37° C., 90 min
  Coagulation time 100%: 11.7 s
[2]; 0.003% added to Thromborel S heated 120° C., 0.75 sec, incubated 37° C., 90 min
  Coagulation time 100%: 11.4 s
[2]; 0.03% added to Thromborel S heated 120° C., 0.75 sec, incubated 37° C., 90 min
  Coagulation time 100%: 11.5 s
[2]; 0.3% added to Thromborel S heated 120° C., 0.75 sec, incubated 37° C., 90 min
  Coagulation time 100%: 15 s

## O=C1O[C@H]([C@@H](O)CO)C(O)=C1O [ascorbic acid]
[1]; reagent stored 18 h/4° C.
  Coagulation time, Sample: FVII: 157.7
  FVII sens.: FVII/100%: 11.5
[1]; reagent stored 7 days 4° C.
  Coagulation time, Sample: FVII: 154.3
  FVII sens.: FVII/100%: 11.0
[1]; reagent stored 7 days 37° C.
  Coagulation time, Sample: FVII: 181.1
  FVII sens.: FVII/100%: 12.3
[1]; reagent stored 14 days 4° C.
  Coagulation time, Sample: FVII: 161.6
  FVII sens.: FVII/100%: 11.5
[1]; reagent stored 14 days 37° C.
  Coagulation time, Sample: FVII: 195.8
  FVII sens.: FVII/100%: 12.8
[2]; reagent stored 18 h/4° C., Fe(II)SO4 or CuCl 0.01 mM in Thromborel S heated 85° C., 3 sec
  Coagulation time, Sample: 100%: 13.7
[2]; reagent stored 7 days 4° C., Fe(II)SO4 or CuCl 0.01 mM
  Coagulation time, Sample: 100%: 14
[2]; reagent stored 7 days 37° C., Fe(II)SO4 or CuCl 0.01 mM
  Coagulation time, Sample: 100%: 14.7
[2]; reagent stored 14 days 4° C., Fe(II)SO4 or CuCl 0.01 mM
  Coagulation time, Sample: 100%: 14.1
[2]; reagent stored 14 days 37° C., Fe(II)SO4 or CuCl 0.01 mM
  Coagulation time, Sample: 100%: 15.3
[3]; [27]
  Coagulation time, Sample: Patho II: 51.4
  Spread: Patho II/100%: 3.8
[3]; [28]
  Coagulation time, Sample: Patho II: 51.3
  Spread: Patho II/100%: 3.7
[3]; [29]
  Coagulation time, Sample: Patho II: 51.5
  Spread: Patho II/100%: 3.5
[3]; reagent stored 14 days 4° C., ascorbic acid 1 mM, Fe(II)SO4 or CuCl 0.01 mM, stabilization after 6 h (iron: after 1 h)
  Coagulation time, Sample: Patho II: 51.1
[3]; reagent stored 14 days 37° C., ascorbic acid 1 mM, Fe(II)SO4 or CuCl 0.01 mM, stabilization after 6 h (iron: after 1 h)
  Coagulation time, Sample: Patho II: 53.1

## CC(C)CC(=O)N[C@H](C(=O)N[C@H](C(=O)N[C@@H](CC(C)C)[C@@H](O)CC(=O)N[C@@H](C)C(=O)N[C@@H](CC(C)C)[C@@H](O)CC(=O)O)C(C)C)C(C)C [Pepstatin] (Isovaleryl-VV[Sta]A[Sta]-OH)
[1]; [30]
  Coagulation time FVII-MP: 115 s
  FVII sens.: FVII-MP/100%: 10.9
[2]; [31]
  Coagulation time 100%: 10.6 s
[3]; [31]
  Coagulation time Patho II: 21.6 s
  Spread: Patho II/100%: 2.0

## CC(=O)N[C@@H](CC(C)C)C(=O)N[C@@H](CC(C)C)C(=O)N[C@H](C=O)CCCNC(=N)N [Leupeptin]
[1]; [32]
  Coagulation time FVII-MP: 121 s
  FVII sens.: FVII-MP/100%: 11.4
[2]
  Coagulation time 100%: 10.6 s
[3]
  Coagulation time Patho II: 22.5 s
  Spread: Patho II/100%: 2.1
